Measurements from patent US11278530B2, “Polycyclic amides as muscarinic M1 receptor positive allosteric modulators” (SUVEN LIFE SCIENCES LIMITED, priority 2017, dated 2022).

Tests used:
[1] = biological target: T1, recombinant human Muscarinic M1 receptor (Homo sapiens, UniProt P11229); experiment: Allosteric potency EC50 for Muscarinic M1 receptor, CHO pCRE-Luc reporter cell-based assay with EC20 of acetylcholine; settings: CHO cells, human M1, luciferase reporter, in presence of EC20 of acetylcholine, 4 h
T1 sequence (P11229 1-460): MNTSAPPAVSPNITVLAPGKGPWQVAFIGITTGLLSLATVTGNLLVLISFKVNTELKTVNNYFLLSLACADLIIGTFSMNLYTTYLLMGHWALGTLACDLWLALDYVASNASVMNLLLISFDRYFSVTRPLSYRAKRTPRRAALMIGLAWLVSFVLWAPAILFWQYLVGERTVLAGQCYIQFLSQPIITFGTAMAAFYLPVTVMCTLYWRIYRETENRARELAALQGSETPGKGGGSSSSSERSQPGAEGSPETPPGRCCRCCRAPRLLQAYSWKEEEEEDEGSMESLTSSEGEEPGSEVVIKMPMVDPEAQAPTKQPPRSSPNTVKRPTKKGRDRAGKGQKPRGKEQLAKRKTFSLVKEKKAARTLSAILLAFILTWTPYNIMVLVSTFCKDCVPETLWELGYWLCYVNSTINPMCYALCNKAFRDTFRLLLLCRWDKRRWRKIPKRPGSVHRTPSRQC
Protocol: Determination of allosteric potency EC50 values for Muscarinic M1 receptor:
A stable CHO cell line expressing recombinant human Muscarinic M1 receptor and pCRE-Luc reporter system was used for cell-based assay. The assay offers a non-radioactive based approach to determine binding of a compound to GPCRs. In this specific assay, the level of intracellular cyclic AMP which is modulated by activation or inhibition of the receptor is measured. The recombinant cells harbor luciferase reporter gene under the control of cAMP response element.
The above cells were grown in 96 well clear bottom white plates in Hams F12 medium containing 10% fetal bovine serum (FBS). Prior to the addition of compounds or standard agonist, cells were serum starved overnight. Increasing concentrations of test compounds were added along with EC20 of acetylcholine in OptiMEM medium to the cells. The incubation was continued at 37° C. in CO2 incubator for 4 h. Medium was removed and cells were washed with phosphate buffered saline. The cells were lysed and luciferase activity was measured in a Luminometer. Luminescence counts in each concentrations of test item were normalized to the acetylcholine induced maximum response and the data was analyzed using Graphpad software. EC50 values of the compounds were defined as the concentration required in stimulating the luciferase activity by 50% in presence of EC20 of acetylcholine.

[2] = Rodent pharmacokinetic study; format: in vivo, Male Wistar rats; settings: male, Wistar, rat, plasma; for bioavailability: oral 3 mg/kg vs i.v. 1 mg/kg, read-out: F (bioavailability)
Protocol: Rodent Pharmacokinetic Study
Male Wistar rats (260±50 grams) were used as experimental animals. Animals were housed individually in polypropylene cage. Two days prior to study, male Wistar rats were anesthetized with isoflurane for surgical placement of jugular vein catheter. Rats were randomly divided for oral (3 mg/kg) and intravenous (i.v) (1 mg/kg) dosing (n=3/group) and fasted overnight before oral dosing (p.o.). However, rats allocated to intravenous (i.v.) dosing food and water was provided ad libitum.
At pre-determined point, blood was collected through jugular vein and replenished with an equivalent volume of normal saline. Collected blood was transferred into a labelled eppendorf tube containing 10 μL of heparin as an anticoagulant. Typically blood samples were collected at following time points: 0.08, 0.25, 0.5, 1, 2, 4, 6, 8, and 24 h post dose. Blood was centrifuged at 4000 rpm for 10 minutes. Plasma was separated and stored frozen at −80° C. until analysis. The concentrations of the test compounds were quantified in plasma by qualified LC-MS/MS method using suitable extraction technique. The test compounds were quantified in the calibration range around 1-1000 ng/mL in plasma. Study samples were analyzed using calibration samples in the batch and quality control samples spread across the batch.
Pharmacokinetic parameters Cmax, Tmax (h), AUCt, T1/2, clearance and bioavailability (F) were calculated by non-compartmental model using standard non-compartmental model by using Phoenix WinNonlin 6.0.2 or 6.0.3 version Software package.

[3] = Rodent brain penetration study; format: in vivo, Male Wistar rats; settings: male, Wistar, brain and plasma, po; rat, 3 mg/kg, p.o. @ 1.0 hr, brain-plasma ratio; read-out: Single dose Rat Brain Penetration (Cb/Cp)
Protocol: Rodent Brain Penetration Study
Male Wistar rats (260±40 grams) were used as experimental animals. Three animals were housed in each cage. Animals were given water and food ad libitum throughout the experiment and maintained on a 12 h light/dark cycle.
Brain penetration was determined in discrete manner in rats. One day prior to dosing day, male Wistar rats were acclimatized and randomly grouped according to their weight. At each time point (0.5, 1 and 2 h) n=3 animals were used.
The test compounds were suitably preformulated and administered orally at (free base equivalent) 3 mg/kg. Blood samples were removed via cardiac puncture by using isoflurane anesthesia. The animals were sacrificed to collect brain tissue. Plasma was separated and brain samples were homogenized and stored frozen at −20° C. until analysis. The concentrations of the test compounds in plasma and brain were determined using LC-MS/MS method.
The test compounds were quantified in plasma and brain homogenate by qualified LC-MS/MS method using suitable extraction technique. The test compounds were quantified in the calibration range of 1-500 ng/mL in plasma and brain homogenate. Study samples were analyzed using calibration samples in the batch and quality control samples spread across the batch.

## Cc1c(Cc2ccc(Cl)nc2)cc(C(=O)N[C@H]2CCCC[C@@H]2O)c2ncccc12 [Example 6, N-(cis-1S,2S-2-Hydroxycyclohexyl)-6-(2-chloropyridin-5-ylmethyl)-5-methylquinoline-8-carboxamide]
[1]
  EC50: 1670 nM
[2]; iv, i.v. 1 mg/kg
  AUC(0-t): 664 ± 81 ng·h/mL
  half-life: 1.5 ± 0.6 h
  clearance: 25 ± 3.3 mL/min/kg
[2]
  bioavailability: 50 ± 2%
[2]; oral 3 mg/kg
  AUC(0-t): 1000 ± 38 ng·h/mL
  Cmax: 582 ± 72 ng/mL
  Tmax: 0.5 h
  half-life: 1.3 ± 0.2 h
[3]
  Kp at 1 h: 0.26 ± 0.04

## Cc1c(Cc2ccc(-c3cnn(C)c3)c(F)c2F)cc(C(=O)N[C@H]2CCCC[C@@H]2O)c2ncccc12 [Example 8, N-(cis-1S,2S-2-Hydroxycyclohexyl)-6-[2,3-difluoro-4-(1-methyl-1H-pyrazol-4-yl)-benzyl]-5-methylquinoline-8-carboxamide]
[1]
  EC50: 168 nM
[2]; iv, i.v. 1 mg/kg
  AUC(0-t): 6150 ± 485 ng·h/mL
  half-life: 3.3 ± 0.7 h
  clearance: 2.7 ± 0.2 mL/min/kg
[2]
  bioavailability: 100 ± 16%
[2]; oral 3 mg/kg
  AUC(0-t): 18400 ng·h/mL
  Cmax: 2330 ± 441 ng/mL
  Tmax: 2 h
  half-life: 3.6 ± 0.2 h

## Cc1c(Cc2ccnc(Cl)c2)cc(C(=O)N[C@H]2CCCC[C@@H]2O)c2ncccc12 [Example 1, N-(cis-1S,2S-2-Hydroxycyclohexyl)-6-(2-chloropyridin-4-ylmethyl)-5-methylquinoline-8-carboxamide]
[1]
  EC50: 719 nM
[2]; iv, i.v. 1 mg/kg
  AUC(0-t): 492 ± 22 ng·h/mL
  half-life: 1.3 ± 0.5 h
  clearance: 34 ± 1.5 mL/min/kg
[2]
  bioavailability: 24 ± 8%
[2]; oral 3 mg/kg
  AUC(0-t): 360 ± 117 ng·h/mL
  Cmax: 150 ± 39 ng/mL
  Tmax: 0.5 to 1 h
  half-life: 1.1 ± 0.1 h
[3]
  Kp at 1 h: 0.54 ± 0.04

## Cc1c(Cc2cccc(F)c2F)cc(C(=O)N[C@H]2CCCC[C@@H]2O)c2ncccc12 [Example 2, N-(cis-1S,2S-2-Hydroxycyclohexyl)-6-(2,3-difluorobenzyl)-5-methylquinoline-8-carboxamide]
[1]
  EC50: 1680 nM
[2]; iv, i.v. 1 mg/kg
  AUC(0-t): 367 ± 39 ng·h/mL
  half-life: 1.6 ± 0.3 h
  clearance: 45 ± 5 mL/min/kg
[2]
  bioavailability: 14 ± 5%
[2]; oral 3 mg/kg
  AUC(0-t): 158 ± 58 ng·h/mL
  Cmax: 48 ± 23 ng/mL
  Tmax: 0.5 to 2 h
  half-life: 2 ± 0.2 h
[3]
  Kp at 1 h: 1.74 ± 0.03

## Cc1c(Cc2ccc(-n3cccn3)cc2)cc(C(=O)N[C@H]2CCCC[C@@H]2O)c2nc[nH]c12 [Example 27, N-(cis-1S,2S-2-Hydroxycyclohexyl)-7-methyl-6-(4-pyrazol-1-yl-benzyl)-1H-benzimidazole-4-carboxamide]
[1]
  EC50: 357 nM

## Cc1c(Cc2ccc(-c3cnn(C)c3)c(F)c2F)cc(C(=O)N[C@@H]2CCCC[C@H]2O)c2c1ncn2C [Example 43, N-(cis-1S,2S-2-Hydroxycyclohexyl)-3,7-dimethyl-6-[2,3-difluoro-4-(1-methyl-1H-pyrazol-4-yl)-benzyl]-3H-benzimidazole-4-carboxamide]
[1]
  EC50: 1460 nM

## Cc1c(Cc2cccnc2Cl)cc(C(=O)N[C@@H]2CCCC[C@H]2O)c2nc[nH]c12 [Example 31, N-(cis-1S,2S-2-Hydroxycyclohexyl)-7-methyl-6-[2-chloropyridin-3-ylmethyl]-1H-benzimidazole-4-carboxamide]
[1]
  EC50: 2820 nM

## Cc1c(Cc2ccc(-n3cccn3)cc2)cc(C(=O)N[C@H]2CCCC[C@@H]2O)c2ncccc12 [Example 10, N-(cis-1S,2S-2-Hydroxycyclohexyl)-6-(4-pyrazol-1-yl-benzyl)-5-methylquinoline-8-carboxamide]
[1]
  EC50: 157 nM

## Cc1c(Cc2ccc(-c3cnn(C)c3)cc2)cc(C(=O)N[C@H]2CCCC[C@@H]2O)c2c1NCCO2 [Example 16, N-(cis-1S,2S-2-Hydroxycyclohexyl)-6-[4-(1-methyl-1H-pyrazol-4-yl)-benzyl]-5-methyl-3,4-dihydro-2H-benzo[1,4]oxazine-8-carboxamide]
[1]
  EC50: 798 nM

## O=C(N[C@H]1CCCC[C@@H]1O)c1cc(Cc2ccc(-c3cscn3)cc2)cn2ccnc12 [Example 23, N-(cis-1S,2S-2-Hydroxycyclohexyl)-6-(4-thiazol-4-yl-benzyl)-imidazo[1,2-a]pyridine-8-carboxamide]
[1]
  EC50: 308 nM

## Cc1c(Cc2ccc(-n3cccn3)cc2)cc(C(=O)N[C@H]2CCCC[C@@H]2O)c2c1NCCO2 [Example 17, N-(cis-1S,2S-2-Hydroxycyclohexyl)-6-(4-pyrazol-1-yl-benzyl)-5-methyl-3,4-dihydro-2H-benzo[1,4]oxazine-8-carboxamide]
[1]
  EC50: 1120 nM
[2]; iv, i.v. 1 mg/kg
  AUC(0-t): 635 ± 70 ng·h/mL
  half-life: 1.3 ± 0.2 h
  clearance: 26 ± 3 mL/min/kg
[2]
  bioavailability: 37 ± 6%
[2]; oral 3 mg/kg
  AUC(0-t): 705 ± 118 ng·h/mL
  Cmax: 288 ± 26.5 ng/mL
  Tmax: 1 h
  half-life: 1.3 ± 0.1 h
[3]
  Kp at 1 h: 0.32 ± 0.06

## Cc1c(Cc2ccc(-c3cnn(C)c3)cc2)cc(C(=O)N[C@H]2CCCC[C@@H]2O)c2nccn12 [Example 18, N-(cis-1S,2S-2-Hydroxycyclohexyl)-5-methyl-6-[4-(1-methyl-1H-pyrazol-4-yl)-benzyl]-imidazo[1,2-a]pyridine-8-carboxamide]
[1]
  EC50: 248 nM

## O=C(N[C@H]1CCCC[C@@H]1O)c1cc(Cc2cccc(F)c2F)cn2ccnc12 [Example 22, N-(cis-1S,2S-2-Hydroxycyclohexyl)-6-(2.3-difluorobenzyl)-imidazo[1,2-a]pyridine-8-carboxamide]
[1]
  EC50: 3820 nM

## Cn1cc(-c2ccc(Cc3cc(C(=O)N[C@H]4CCCC[C@@H]4O)c4nccn4c3)c(F)c2)cn1 [Example 26, N-(cis-1S,2S-2-Hydroxycyclohexyl)-6-[2-fluoro-4-(1-methyl-1H-pyrazol-4-yl)-benzyl]-imidazo[1,2-a]pyridine-8-carboxamide]
[1]
  EC50: 3340 nM

## Cc1c(Cc2ccc(-c3cscn3)cc2)cc(C(=O)N[C@@H]2CCCC[C@H]2O)c2c1ncn2C [Example 45, N-(cis-1S,2S-2-Hydroxycyclohexyl)-3,7-dimethyl-6-[4-(thiazol-4-yl)-benzyl]-3H-benzimidazole-4-carboxamide]
[1]
  EC50: 10000 nM
